Reference: ChEMBL document CHEMBL4376823, “The discovery of a potent and selective third-generation EGFR kinase inhibitor as a therapy for EGFR L858R/T790M double mutant non-small cell lung cancer” (Eur J Med Chem, 2019)

Legend:
[1] = target: Epidermal growth factor receptor (Homo sapiens, UniProt P00533); assay: Inhibition of EGFR in human NCI-H292 cells assessed as reduction in EGFR Y1068 phosphorylation at incubated for 4 hrs by Western blot analysis; format: cell-based
NCI-H1975 [2] = assay: Induction of apoptosis in human NCI-H1975 cells assessed as early apoptotic cells at 25 nM incubated for 48 hrs by propidium iodide and annexin-V FITC staining based flow cytometry (reference value: 0.95 %); format: functional
NCI-H1975 [3] = assay: Antiproliferative activity against human NCI-H1975 cells expressing EGFR T790M/L858R mutant assessed as reduction in cell viability incubated for 72 hrs by MTT assay; format: functional, cell-based; settings: nci-h1975
NCI-H1975 [4] = assay: Induction of apoptosis in human NCI-H1975 cells assessed as viable cells at 25 nM incubated for 72 hrs by propidium iodide and annexin-V FITC staining based flow cytometry (reference value: 97.55 %); format: functional; settings: NCI-H1975, 72 h, read-out: Activity
NCI-H1975 [5] = assay: Induction of apoptosis in human NCI-H1975 cells assessed as early apoptotic cells at 50 nM incubated for 24 hrs by propidium iodide and annexin-V FITC staining based flow cytometry (reference value: 0.94 %); format: functional
[6] = AUC (0 to t) in ICR mouse at 5 mg/kg, iv; format: ADME, organism-based; settings: in vivo
[7] = MRT (0 to t) in ICR mouse at 5 mg/kg, iv; format: ADME, organism-based; settings: in vivo
NCI-H1975 [8] = assay: Induction of apoptosis in human NCI-H1975 cells assessed as viable cells at 5 nM incubated for 48 hrs by propidium iodide and annexin-V FITC staining based flow cytometry (reference value: 99.05 %); format: functional; settings: NCI-H1975, 48 h, read-out: Activity
[9] = Clearance in ICR mouse at 5 mg/kg, iv; format: ADME, organism-based; settings: in vivo
[10] = AUC (0 to infinity) in ICR mouse at 10 mg/kg, po; format: ADME, organism-based; design: dose 10 mg/kg, route oral, time infinity; settings: in vivo
[11] = AUC (0 to t) in ICR mouse at 10 mg/kg, po; format: ADME, organism-based; settings: in vivo
NCI-H1975 [12] = assay: Induction of apoptosis in human NCI-H1975 cells assessed as late apoptotic cells at 25 nM incubated for 72 hrs by propidium iodide and annexin-V FITC staining based flow cytometry (reference value: 0.01 %); format: functional
NCI-H1975 [13] = assay: Induction of apoptosis in human NCI-H1975 cells assessed as necrotic cells at 5 nM incubated for 48 hrs by propidium iodide and annexin-V FITC staining based flow cytometry (reference value: 0.01 %); format: functional
NCI-H1975 [14] = assay: Induction of apoptosis in human NCI-H1975 cells assessed as late apoptotic cells at 5 nM incubated for 72 hrs by propidium iodide and annexin-V FITC staining based flow cytometry (reference value: 0.01 %); format: functional
NCI-H1975 [15] = assay: Induction of apoptosis in human NCI-H1975 cells assessed as early apoptotic cells at 50 nM incubated for 48 hrs by propidium iodide and annexin-V FITC staining based flow cytometry (reference value: 0.95 %); format: functional
NCI-H1975 [16] = assay: Inhibition of cell migration in human NCI-H1975 cells at 25 nM incubated for 24 hrs by phase contrast microscopy relative to control; format: functional; settings: Homo sapiens, NCI-H1975, 24 h
NCI-H1975 [17] = assay: Induction of apoptosis in human NCI-H1975 cells assessed as necrotic cells at 5 nM incubated for 24 hrs by propidium iodide and annexin-V FITC staining based flow cytometry (reference value: 0.01 %); format: functional
[18] = Half life in ICR mouse at 10 mg/kg, po; format: ADME, organism-based; settings: in vivo
[19] = Tmax in ICR mouse at 5 mg/kg, iv; format: ADME, organism-based; settings: in vivo
[20] = Cytotoxicity against human HLF cells expressing EGFR assessed as reduction in cell viability incubated for 72 hrs by MTT assay; format: cell-based
NCI-H1975 [21] = assay: Induction of apoptosis in human NCI-H1975 cells assessed as viable cells at 50 nM incubated for 72 hrs by propidium iodide and annexin-V FITC staining based flow cytometry (reference value: 97.55 %); format: functional; settings: NCI-H1975, 72 h, read-out: Activity
[22] = Selectivity index, ratio of IC50 for human BJ cells to IC50 for human NCI-H1975 cells expressing EGFR T790M/L858R mutant; format: toxicity
NCI-H1975 [23] = assay: Induction of apoptosis in human NCI-H1975 cells assessed as early apoptotic cells at 25 nM incubated for 72 hrs by propidium iodide and annexin-V FITC staining based flow cytometry (reference value: 2.43 %); format: functional
NCI-H292 = assay: Antiproliferative activity against human NCI-H292 cells expressing EGFR assessed as reduction in cell viability incubated for 72 hrs by MTT assay; format: functional, cell-based; settings: nci-h292
[24] = Cmax in ICR mouse at 5 mg/kg, iv; format: ADME, organism-based; design: dose 5 mg/kg, route intravenous; settings: in vivo
[25] = AUC (0 to infinity) in ICR mouse at 5 mg/kg, iv; format: ADME, organism-based; design: dose 5 mg/kg, time infinity, route intravenous; settings: in vivo
[26] = Tmax in ICR mouse at 10 mg/kg, po; format: ADME, organism-based; settings: in vivo
NCI-H1975 [27] = assay: Induction of apoptosis in human NCI-H1975 cells assessed as late apoptotic cells at 25 nM incubated for 48 hrs by propidium iodide and annexin-V FITC staining based flow cytometry (reference value: 0.23 %); format: functional
[28] = Half life in ICR mouse at 5 mg/kg, iv; format: ADME, organism-based; settings: in vivo
NCI-H1975 [29] = assay: Induction of apoptosis in human NCI-H1975 cells assessed as necrotic cells at 50 nM incubated for 72 hrs by propidium iodide and annexin-V FITC staining based flow cytometry (reference value: 0.01 %); format: functional
NCI-H1975 [30] = assay: Inhibition of cell migration in human NCI-H1975 cells at 50 nM incubated for 24 hrs by phase contrast microscopy relative to control; format: functional; settings: NCI-H1975, 24 h
NCI-H1975 [31] = assay: Induction of apoptosis in human NCI-H1975 cells assessed as viable cells at 5 nM incubated for 24 hrs by propidium iodide and annexin-V FITC staining based flow cytometry (reference value: 98.82 %); format: functional; settings: NCI-H1975, 24 h, read-out: Activity
NCI-H1975 [32] = assay: Induction of apoptosis in human NCI-H1975 cells assessed as viable cells at 25 nM incubated for 24 hrs by propidium iodide and annexin-V FITC staining based flow cytometry (reference value: 98.82 %); format: functional; settings: NCI-H1975, 24 h, read-out: Activity
[33] = Selectivity index, ratio of IC50 for human HLF cells to IC50 for human NCI-H1975 cells expressing EGFR T790M/L858R mutant
NCI-H1975 [34] = assay: Induction of apoptosis in human NCI-H1975 cells assessed as necrotic cells at 50 nM incubated for 48 hrs by propidium iodide and annexin-V FITC staining based flow cytometry (reference value: 0.01 %); format: functional
NCI-H1975 [35] = assay: Induction of apoptosis in human NCI-H1975 cells assessed as late apoptotic cells at 5 nM incubated for 24 hrs by propidium iodide and annexin-V FITC staining based flow cytometry (reference value: 0.23 %); format: functional

Chain of Epidermal growth factor receptor (P00533 whole entry): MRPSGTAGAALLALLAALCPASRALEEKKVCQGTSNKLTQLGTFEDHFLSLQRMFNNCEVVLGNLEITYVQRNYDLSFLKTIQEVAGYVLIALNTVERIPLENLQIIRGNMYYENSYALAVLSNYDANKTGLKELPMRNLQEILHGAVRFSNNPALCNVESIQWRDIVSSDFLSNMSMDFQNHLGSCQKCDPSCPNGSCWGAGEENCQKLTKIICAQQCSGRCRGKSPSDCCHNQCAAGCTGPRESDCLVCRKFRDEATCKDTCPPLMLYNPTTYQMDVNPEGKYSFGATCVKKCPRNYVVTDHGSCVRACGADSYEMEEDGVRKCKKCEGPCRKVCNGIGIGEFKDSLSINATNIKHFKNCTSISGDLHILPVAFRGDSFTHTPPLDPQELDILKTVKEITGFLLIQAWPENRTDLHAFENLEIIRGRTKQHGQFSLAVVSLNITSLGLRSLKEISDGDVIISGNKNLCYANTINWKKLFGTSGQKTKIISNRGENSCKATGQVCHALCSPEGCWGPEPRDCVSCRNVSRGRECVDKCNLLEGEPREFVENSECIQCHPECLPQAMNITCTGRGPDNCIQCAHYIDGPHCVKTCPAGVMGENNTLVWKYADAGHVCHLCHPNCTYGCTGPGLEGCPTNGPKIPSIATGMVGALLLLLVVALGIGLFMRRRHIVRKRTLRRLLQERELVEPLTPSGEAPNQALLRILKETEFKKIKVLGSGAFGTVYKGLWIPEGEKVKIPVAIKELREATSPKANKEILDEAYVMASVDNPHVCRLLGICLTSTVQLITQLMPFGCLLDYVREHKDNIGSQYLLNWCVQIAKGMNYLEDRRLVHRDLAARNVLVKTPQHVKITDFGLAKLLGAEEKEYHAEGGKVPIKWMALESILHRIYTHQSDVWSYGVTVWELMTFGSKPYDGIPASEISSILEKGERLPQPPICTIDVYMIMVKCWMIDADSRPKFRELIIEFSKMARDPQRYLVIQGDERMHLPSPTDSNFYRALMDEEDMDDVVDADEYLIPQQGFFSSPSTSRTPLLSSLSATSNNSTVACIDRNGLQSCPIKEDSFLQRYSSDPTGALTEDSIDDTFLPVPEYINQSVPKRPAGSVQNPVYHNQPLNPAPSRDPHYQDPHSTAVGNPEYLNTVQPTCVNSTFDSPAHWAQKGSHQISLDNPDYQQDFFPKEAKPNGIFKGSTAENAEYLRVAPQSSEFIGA

SMILES: C=CC(=O)Nc1cc(Nc2nccc(-c3cn(C)c4ccccc34)n2)c(OC)cc1[S+]([O-])CCN(C)C (single isomer, unassigned; (-))
- EC50 [1]: 90.2 nM
- Activity (NCI-H1975 [2]): 51.86%
- IC50 (NCI-H1975 [3]): 10 nM
- viability at 0.025 µM (NCI-H1975 [4]): 35.2%
- Activity (NCI-H1975 [5]): 31.61%
- AUC(0-t) [6]: 1290 ng·h/mL
- MRT last [7]: 1.15 h
- viability at 0.005 µM (NCI-H1975 [8]): 77%
- clearance [9]: 63.9 mL/min/kg
- AUC(0-inf) [10]: 2000 ng·h/mL
- AUC(0-t) [11]: 1910 ng·h/mL
- Activity (NCI-H1975 [12]): 21.68%
- Activity (NCI-H1975 [13]): 0.05%
- Activity (NCI-H1975 [14]): 18.71%
- Activity (NCI-H1975 [15]): 56.02%
- inhibition at 0.025 µM (NCI-H1975 [16]): 69.7%
- Activity (NCI-H1975 [17]): 0.32%
- half-life [18]: 1.73 h
- Tmax [19]: 4.8 min
- IC50 [20]: 9140 nM
- viability at 0.05 µM (NCI-H1975 [21]): 11.3%
- Ratio IC50 [22]: > 1000
- Activity (NCI-H1975 [23]): 43.25%
- IC50 (NCI-H292): 1090 nM
- Cmax [24]: 1610 ng/mL
- AUC(0-inf) [25]: 1300 ng·h/mL
- Tmax [26]: 0.5 h
- Activity (NCI-H1975 [27]): 2.73%
- half-life [28]: 1.12 h
- Activity (NCI-H1975 [29]): 1.84%
- inhibition at 0.05 µM (NCI-H1975 [30]): 87.6%
- viability at 0.005 µM (NCI-H1975 [31]): 83.6%
- viability at 0.025 µM (NCI-H1975 [32]): 76.8%
- Ratio IC50 [33]: 910
- Activity (NCI-H1975 [34]): 0.71%
- Activity (NCI-H1975 [35]): 1.17%
